Source: patent US20240287138A1, “CYCLIC PEPTIDES FOR INHIBITING TNF RECEPTOR 1 ACTIVITY” (Merck Sharp & Dohme LLC, priority 2023, published 2024)
Numbered stars: 1 amine (or outer) side, 2 acyl side, 3 side chain; on linkers, the order of the positions; unused ones are H or OH. Bridge positions count the residues as written; N and C are the ends. Square brackets hold non-standard residues; d marks the D form. Peptide text beside a SMILES is read from it. Trp(βS-Me,7-OMe) = COc1cccc2c([C@H](C)[C@H](N)C(=O)O)c[nH]c12; Phe(3R-OH) = O=C([C@@H](N[*:1])[C@H](O[*:3])c1ccccc1)[*:2]; Achc(cis-1,4) = O=C([C@H]1CC[C@@H](N[*:1])CC1)[*:2]; Trp(7-Cl) = N[C@@H](Cc1c[nH]c2c(Cl)cccc12)C(=O)O; X15 = C[C@H](c1ccc(O)cc1)[C@H](N[*:1])C(=O)[*:2]; Phe(4-CONH2) = NC(=O)c1ccc(C[C@H](N)C(=O)O)cc1; Phe(4-COOH) = N[C@@H](Cc1ccc(C(=O)O)cc1)C(=O)O; Trp(7-aza) = N[C@@H](Cc1c[nH]c2ncccc12)C(=O)O; Phe(4-CH2NH2) = NCc1ccc(C[C@H](N)C(=O)O)cc1; Ala(4-thiazolyl) = N[C@@H](Cc1cscn1)C(=O)O; Pip(5R-OH) = O=C(O)[C@@H]1CC[C@@H](O)CN1; X4 = O=C([C@H]1C=C[C@@H](N[*:1])C1)[*:2]; X1 = O=C([C@@H]1CC[C@H](N[*:1])C1)[*:2]; Pip(4-aza) = O=C(O)[C@@H]1CNCCN1; hPhe = N[C@@H](CCc1ccccc1)C(=O)O; 4Pal = N[C@@H](Cc1ccncc1)C(=O)O; NMeE = CN[C@@H](CCC(=O)O)C(=O)O; dHyp = O=C(O)[C@H]1C[C@H](O)CN1; Cit = NC(=O)NCCC[C@H](N)C(=O)O; αMeS = C[C@](N)(CO)C(=O)O; NMeA = CN[C@@H](C)C(=O)O; Nle = CCCC[C@H](N)C(=O)O; Sar = CNCC(=O)O

What was measured:
[1] = target: T1, human TNFR2 ECD protein (Homo sapiens, UniProt P20333); test: SPR off-target binding (selectivity) to human TNFR2 ECD
T1 construct: HRV 3C protease cleavage site (C); 6His (C, cleaved yes); made in house; host or cells: Sf21 insect cells (baculovirus), secreted
T1 sequence (P20333 23-257): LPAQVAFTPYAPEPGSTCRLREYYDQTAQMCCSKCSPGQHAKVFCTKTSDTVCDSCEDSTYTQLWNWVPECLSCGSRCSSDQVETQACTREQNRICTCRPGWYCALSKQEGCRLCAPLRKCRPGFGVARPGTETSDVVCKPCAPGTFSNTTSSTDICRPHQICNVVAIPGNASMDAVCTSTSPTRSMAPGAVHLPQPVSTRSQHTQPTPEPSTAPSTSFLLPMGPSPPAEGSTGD
Procedure, shortened: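 Biotinylated human TNFR1 or TNFR2 ECD (C-terminal Avi-tag, Sf21-expressed) captured on a regenerable streptavidin chip; peptide analytes flowed in 10 mM HEPES pH 7.4, 150 mM NaCl, 3 mM EDTA, 0.05% P20, 2% DMSO. kon and koff measured; affinity calculated from the rate constants.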

[2] = target: T2, TNFα-induced NF-κB signal transduction pathway (TNFR1 signaling) in THP-1 cells (Homo sapiens, UniProt P19438); test: THP-1 Lucia NF-κB reporter cell assay, inhibition of TNFα-induced NF-κB signaling; format: cell-based; details: THP-1 NF-κB Lucia reporter cells, 10 ng/mL TNFα, 16-18 h, secreted luciferase; read-out: THP-1 IC50
T2 sequence (P19438 30-455): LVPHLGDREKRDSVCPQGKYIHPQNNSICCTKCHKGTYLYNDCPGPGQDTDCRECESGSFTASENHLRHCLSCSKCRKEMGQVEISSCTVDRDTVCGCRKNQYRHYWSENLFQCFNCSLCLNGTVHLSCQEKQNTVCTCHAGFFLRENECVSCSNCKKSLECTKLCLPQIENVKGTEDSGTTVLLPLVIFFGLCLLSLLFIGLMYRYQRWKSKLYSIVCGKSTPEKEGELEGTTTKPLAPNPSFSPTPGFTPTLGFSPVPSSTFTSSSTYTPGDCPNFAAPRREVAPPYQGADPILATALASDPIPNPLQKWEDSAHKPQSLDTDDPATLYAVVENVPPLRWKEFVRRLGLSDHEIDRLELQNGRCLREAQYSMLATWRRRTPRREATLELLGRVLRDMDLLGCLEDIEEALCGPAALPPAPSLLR
Procedure, shortened: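 Inhibition of TNFR1-driven NF-κB activation was measured as luminescence of secreted reporter luciferase following overnight (16-18 h) stimulation with 10 ng/mL TNFα.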

Structure (SMILES) | Kd [1] | IC50 [2]
CCCC[C@@H]1NC(=O)[C@@H]2CC[C@@H](C2)NC(=O)[C@H]([C@@H](C)c2c[nH]c3c(OC)cccc23)NC(=O)CN(C)C(=O)[C@H](Cc2ccc(OC)cc2)NC(=O)[C@H](Cc2ccc(C(=O)O)cc2)NC(=O)[C@](C)(CO)NC(=O)[C@H](Cc2c[nH]c3c(Cl)cccc23)NC(=O)[C@H](Cc2ccc(C(N)=O)cc2)NC(=O)[C@H](CCC(N)=O)NC(=O)[C@H](CCC(=O)O)N(C)C(=O)[C@H](Cc2c[nH]c3ccccc23)NC(=O)[C@@H]2CNCCN2C(=O)[C@H](Cc2ccncc2)NC1=O [SEQ ID NO. 240] (cyclo([4Pal][Pip(4-aza)]W[NMeE]Q[Phe(4-CONH2)][Trp(7-Cl)][αMeS][Phe(4-COOH)]Y(Me)[Sar][Trp(βS-Me,7-OMe)][X1][Nle])) | > 1000 nM | 1 nM
CN1CC(=O)N[C@@H](Cc2c[nH]c3ccccc23)C(=O)N[C@H](C(N)=O)CSCC(=O)N[C@@H](CCCCN)C(=O)N[C@@H](Cc2ccc(O)cc2)C(=O)N[C@@H](CO)C(=O)N[C@@H](Cc2c[nH]c3ccccc23)C(=O)N2CCC[C@@H]2C(=O)N[C@@H](CCC(N)=O)C(=O)N[C@@H](Cc2ccncc2)C(=O)N[C@@H](Cc2c[nH]c3ccccc23)C(=O)N[C@@](C)(CO)C(=O)N[C@@H](Cc2ccc(C(=O)O)cc2)C(=O)N[C@@H](Cc2ccc(O)cc2)C1=O [SEQ ID NO. 242] ({CH2CO}-KYSW[dP]Q[4Pal]W[αMeS][Phe(4-COOH)]Y[Sar]WC-NH2; thioether N-14) | > 1000 nM | 3 nM
CCCC[C@@H]1NC(=O)CSC[C@@H](C(N)=O)NC(=O)[C@H]([C@@H](C)c2c[nH]c3c(OC)cccc23)NC(=O)CN(C)C(=O)[C@H](Cc2ccc(O)cc2)NC(=O)[C@H](Cc2ccc(C(=O)O)cc2)NC(=O)[C@](C)(CO)NC(=O)[C@H](Cc2c[nH]c3c(Cl)cccc23)NC(=O)[C@H](Cc2ccncc2)NC(=O)[C@H](CC(N)=O)NC(=O)[C@H](CCC(=O)O)N(C)C(=O)[C@H](Cc2c[nH]c3ncccc23)NC(=O)[C@H](CO)NC(=O)[C@H]([C@H](C)c2ccc(O)cc2)NC1=O [SEQ ID NO. 243] ({CH2CO}-[Nle][X15]S[Trp(7-aza)][NMeE]N[4Pal][Trp(7-Cl)][αMeS][Phe(4-COOH)]Y[Sar][Trp(βS-Me,7-OMe)]C-NH2; thioether N-14) | > 1000 nM | 3.2 nM
CCCC[C@@H]1NC(=O)[C@H]2CC[C@H](CC2)NC(=O)[C@H]([C@@H](C)c2c[nH]c3c(OC)cccc23)NC(=O)CN(C)C(=O)[C@H](Cc2ccc(O)cc2)NC(=O)[C@H](Cc2ccc(C(=O)O)cc2)NC(=O)[C@](C)(CO)NC(=O)[C@H](Cc2c[nH]c3c(Cl)cccc23)NC(=O)[C@H](Cc2ccncc2)NC(=O)[C@H](CC(N)=O)NC(=O)[C@H](CCC(=O)O)N(C)C(=O)[C@H](Cc2c[nH]c3ccccc23)NC(=O)[C@H](CO)NC(=O)[C@H](Cc2ccc(CN)cc2)NC1=O [SEQ ID NO. 244] (cyclo([4Pal][Trp(7-Cl)][αMeS][Phe(4-COOH)]Y[Sar][Trp(βS-Me,7-OMe)][Achc(cis-1,4)][Nle][Phe(4-CH2NH2)]SW[NMeE]N)) | > 1000 nM | 4.5 nM
CCCC[C@@H]1NC(=O)[C@@H]2CC[C@@H](C2)NC(=O)[C@H]([C@@H](C)c2c[nH]c3c(OC)cccc23)NC(=O)CN(C)C(=O)[C@H](Cc2ccc(C(=O)O)cc2)NC(=O)[C@H](Cc2ccc(C(N)=O)cc2)NC(=O)[C@](C)(CO)NC(=O)[C@H](Cc2c[nH]c3c(Cl)cccc23)NC(=O)[C@H](Cc2ccc(C(=O)O)cc2)NC(=O)[C@H](CC(N)=O)NC(=O)[C@H]2C[C@H](O)CN2C(=O)[C@H](Cc2c[nH]c3ccccc23)NC(=O)[C@@H]2CC[C@@H](O)CN2C(=O)[C@H](Cc2ccncc2)NC1=O [SEQ ID NO. 247] (cyclo([4Pal][Pip(5R-OH)]W[dHyp]N[Phe(4-COOH)][Trp(7-Cl)][αMeS][Phe(4-CONH2)][Phe(4-COOH)][Sar][Trp(βS-Me,7-OMe)][X1][Nle])) | > 1000 nM | 0.5 nM
C[C@H]1C(=O)N[C@@H](CC(N)=O)C(=O)N[C@@H](Cc2ccncc2)C(=O)N[C@@H](Cc2c[nH]c3ccccc23)C(=O)N[C@@](C)(CO)C(=O)N[C@@H](Cc2ccc(C(=O)O)cc2)C(=O)N[C@@H](Cc2ccc(O)cc2)C(=O)N(C)CC(=O)N[C@@H](Cc2c[nH]c3ccccc23)C(=O)N[C@@H]2C=C[C@@H](C2)C(=O)N[C@@H](CCc2ccccc2)C(=O)N[C@@H](Cc2ccncc2)C(=O)N[C@@H](CO)C(=O)N[C@@H](Cc2c[nH]c3ccccc23)C(=O)N1C [SEQ ID NO. 248] (cyclo([4Pal]SW[NMeA]N[4Pal]W[αMeS][Phe(4-COOH)]Y[Sar]W[X4][hPhe])) | > 1000 nM | 10.6 nM
CCCC[C@@H]1NC(=O)CSC[C@@H](C(N)=O)NC(=O)[C@H]([C@@H](C)c2c[nH]c3c(OC)cccc23)NC(=O)CN(C)C(=O)[C@H](Cc2ccc(O)cc2)NC(=O)[C@H](Cc2ccc(C(=O)O)cc2)NC(=O)[C@](C)(CO)NC(=O)[C@H](Cc2c[nH]c3c(Cl)cccc23)NC(=O)[C@H](Cc2ccncc2)NC(=O)[C@H](CC(N)=O)NC(=O)[C@H](CCC(=O)O)N(C)C(=O)[C@H](Cc2c[nH]c3ncccc23)NC(=O)[C@H](Cc2cscn2)NC(=O)[C@H](Cc2ccncc2)NC1=O [SEQ ID NO. 253] ({CH2CO}-[Nle][4Pal][Ala(4-thiazolyl)][Trp(7-aza)][NMeE]N[4Pal][Trp(7-Cl)][αMeS][Phe(4-COOH)]Y[Sar][Trp(βS-Me,7-OMe)]C-NH2; thioether N-14) | > 1000 nM | 4.4 nM
CN1CC(=O)N[C@@H](Cc2c[nH]c3ccccc23)C(=O)N[C@H](C(N)=O)CSCC(=O)N[C@@H](CCCCN)C(=O)N[C@@H](Cc2ccc(O)cc2)C(=O)N[C@@H](CO)C(=O)N[C@@H](Cc2c[nH]c3ccccc23)C(=O)N2CCC[C@@H]2C(=O)N[C@@H](CCCNC(N)=O)C(=O)N[C@@H](Cc2ccncc2)C(=O)N[C@@H](Cc2c[nH]c3ccccc23)C(=O)N[C@@](C)(CO)C(=O)N[C@@H](Cc2ccc(C(=O)O)cc2)C(=O)N[C@@H](Cc2ccc(O)cc2)C1=O [SEQ ID NO. 256] ({CH2CO}-KYSW[dP][Cit][4Pal]W[αMeS][Phe(4-COOH)]Y[Sar]WC-NH2; thioether N-14) | > 1000 nM | 6.1 nM
CCCC[C@@H]1NC(=O)CSC[C@@H](C(N)=O)NC(=O)[C@H]([C@@H](C)c2c[nH]c3c(OC)cccc23)NC(=O)CN(C)C(=O)[C@H](Cc2ccc(O)cc2)NC(=O)[C@H](Cc2ccc(C(=O)O)cc2)NC(=O)[C@](C)(CO)NC(=O)[C@H](Cc2c[nH]c3c(Cl)cccc23)NC(=O)[C@H](Cc2ccncc2)NC(=O)[C@H](CC(N)=O)NC(=O)[C@H](CCC(=O)O)N(C)C(=O)[C@H](Cc2c[nH]c3ncccc23)NC(=O)[C@H](CO)NC(=O)[C@H]([C@H](O)c2ccccc2)NC1=O [SEQ ID NO. 259] ({CH2CO}-[Nle][Phe(3R-OH)]S[Trp(7-aza)][NMeE]N[4Pal][Trp(7-Cl)][αMeS][Phe(4-COOH)]Y[Sar][Trp(βS-Me,7-OMe)]C-NH2; thioether N-14) | > 1000 nM | 1.9 nM
C[C@H]1C(=O)N[C@@H](CC(N)=O)C(=O)N[C@@H](Cc2ccncc2)C(=O)N[C@@H](Cc2c[nH]c3ccccc23)C(=O)N[C@@](C)(CO)C(=O)N[C@@H](Cc2ccc(C(=O)O)cc2)C(=O)N[C@@H](CCCNC(=N)N)C(=O)N(C)CC(=O)N[C@@H](Cc2c[nH]c3ccccc23)C(=O)N[C@H](C(N)=O)CSCC(=O)N[C@@H](CCc2ccccc2)C(=O)N[C@@H](Cc2ccc(O)cc2)C(=O)N[C@@H](CO)C(=O)N[C@@H](Cc2c[nH]c3ccccc23)C(=O)N1C [SEQ ID NO. 260] ({CH2CO}-[hPhe]YSW[NMeA]N[4Pal]W[αMeS][Phe(4-COOH)]R[Sar]WC-NH2; thioether N-14) | > 1000 nM | 50.1 nM
